Laboratory results as given in ChEMBL document CHEMBL4842385, “Indirubin Derivatives as Dual Inhibitors Targeting Cyclin-Dependent Kinase and Histone Deacetylase for Treating Cancer” (J Med Chem, 2021).
Calls of active or inactive are those of the source. The rule behind the calls is not given here.

Columns and labels:
A549 [1] = assay: Antitumor activity against human A549 cells xenografted in BALB/c nude mouse assessed as reduction in tumor size at 25 to 50 mg/kg, iv administered for 21 consecutive days; format: functional, organism-based; conditions: dose 25-50 mg/kg, time 21.0 day
[2] = molecular target: T1, Protein deacetylase HDAC6 (Homo sapiens) (UniProt Q9UBN7); assay: Inhibition of HDAC6 in human K562 cells assessed as accumulation of acetylation of […] at 1 to 10 uM measured after 48 hrs by Western blot analysis; format: cell-based; conditions: dose 1-10 µM
T1 sequence (whole entry): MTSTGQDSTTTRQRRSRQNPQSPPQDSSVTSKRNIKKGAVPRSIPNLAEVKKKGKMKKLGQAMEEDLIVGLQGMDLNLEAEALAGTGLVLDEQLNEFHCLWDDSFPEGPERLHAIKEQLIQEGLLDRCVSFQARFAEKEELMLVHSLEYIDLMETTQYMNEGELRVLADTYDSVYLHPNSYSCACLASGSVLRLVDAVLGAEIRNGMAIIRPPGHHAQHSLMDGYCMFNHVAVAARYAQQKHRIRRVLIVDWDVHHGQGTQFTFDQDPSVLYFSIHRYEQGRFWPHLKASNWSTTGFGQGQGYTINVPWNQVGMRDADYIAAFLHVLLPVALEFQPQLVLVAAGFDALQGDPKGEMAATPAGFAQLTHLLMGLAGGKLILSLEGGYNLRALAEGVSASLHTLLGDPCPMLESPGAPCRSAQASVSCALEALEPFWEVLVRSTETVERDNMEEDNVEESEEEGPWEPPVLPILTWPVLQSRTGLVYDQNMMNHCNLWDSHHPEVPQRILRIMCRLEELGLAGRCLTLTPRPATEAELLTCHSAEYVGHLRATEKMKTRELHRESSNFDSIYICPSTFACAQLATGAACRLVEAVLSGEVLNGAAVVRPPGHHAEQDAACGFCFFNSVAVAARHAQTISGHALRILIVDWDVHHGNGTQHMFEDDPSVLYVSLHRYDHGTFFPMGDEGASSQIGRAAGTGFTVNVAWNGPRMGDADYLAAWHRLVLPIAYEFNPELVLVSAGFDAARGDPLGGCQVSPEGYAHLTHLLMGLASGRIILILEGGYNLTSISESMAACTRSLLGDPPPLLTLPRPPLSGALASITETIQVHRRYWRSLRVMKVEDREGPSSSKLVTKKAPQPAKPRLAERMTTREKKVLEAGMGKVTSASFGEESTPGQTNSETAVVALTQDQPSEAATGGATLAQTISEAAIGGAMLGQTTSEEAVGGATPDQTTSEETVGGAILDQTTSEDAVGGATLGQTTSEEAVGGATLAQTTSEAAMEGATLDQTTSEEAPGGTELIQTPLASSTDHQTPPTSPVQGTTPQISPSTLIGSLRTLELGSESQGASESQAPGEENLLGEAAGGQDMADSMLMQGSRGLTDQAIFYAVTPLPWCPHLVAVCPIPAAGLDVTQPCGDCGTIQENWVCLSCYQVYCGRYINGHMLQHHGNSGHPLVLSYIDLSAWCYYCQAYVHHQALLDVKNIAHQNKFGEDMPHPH

[3] = molecular target: Cyclin-dependent kinase 2/4/6 (Homo sapiens) (UniProt P11802+P24941+Q00534); assay: Inhibition of CDK2/4/6 in human A549 cells assessed as decrease in Rb phosphorylation at 10 uM incubated for 24 hrs followed by compound washout by DAPI staining based immunofluorescence assay; format: cell-based
A549 [4] = assay: Induction of apoptosis in human A549 cells assessed as increase in sum of early and late apoptotic cells at 2.5 to 10 uM measured after 48 hrs by Annexin-V/FITC-propidium iodide staining based flow cytometry analysis; format: functional, cell-based; conditions: dose 2.5-10 µM
[5] = molecular target: T1, Protein deacetylase HDAC6 (Homo sapiens); assay: Inhibition of HDAC6 in human MCF7 cells assessed as accumulation of acetylation of H4 at 1 to 10 uM measured after 48 hrs by Western blot analysis; format: cell-based; conditions: dose 1-10 µM
MCF7 [6] = assay: Induction of apoptosis in human MCF7 cells assessed as increase in sum of early and late apoptotic cells at 2.5 to 10 uM measured after 48 hrs by Annexin-V/FITC-propidium iodide staining based flow cytometry analysis; format: functional, cell-based; conditions: dose 2.5-10 µM
[7] = molecular target: T1, Protein deacetylase HDAC6 (Homo sapiens); assay: Inhibition of HDAC6 in human K562 cells assessed as accumulation of acetylation of H3 at 1 to 10 uM measured after 48 hrs by Western blot analysis; format: cell-based; conditions: dose 1-10 µM
A549 [8] = assay: Induction of apoptosis in human A549 cells assessed as downregulation of Mcl-1 protein measured after 48 hrs by Western blot analysis; format: functional, cell-based; conditions: dose 1-10 µM
MCF7 [9] = assay: Antiproliferative activity against human MCF7 cells assessed as cell growth inhibition measured after 48 hrs by CCK8 assay; format: functional, cell-based; conditions: MCF7, 48 h
[10] = molecular target: T1, Protein deacetylase HDAC6 (Homo sapiens); assay: Inhibition of HDAC6 in human MCF7 cells assessed as increase in alpha tubulin acetylation measured after 48 hrs by Western blot analysis; format: cell-based; conditions: dose 1-10 µM
K562 = assay: Cycle arrest in human K562 cells assessed as increase in cell population at S phase measured after 24 hrs by propidium iodide/RNase staining based flow cytometry; format: functional; conditions: dose 2.5-10 µM
A549 [11] = assay: Induction of apoptosis in human A549 cells measured after 48 hrs by Annexin-V/FITC-propidium iodide staining based flow cytometry analysis; format: functional, cell-based; conditions: dose 2.5-10 µM
Mus musculus = assay: In vivo inhibition of CDK2/4/6 in BALB/c nude mouse xenografted with human A549 cells assessed as reduction in Rb phosphorylation at 25 to 50 mg/kg, iv administered for 21 consecutive days by immunohistochemical analysis; format: functional, organism-based; conditions: dose 25-50 mg/kg
A549 [12] = assay: Antitumor activity against human A549 cells xenografted in BALB/c nude mouse assessed as tumor growth inhibition at 25 mg/kg, iv administered for 21 consecutive days relative to control; format: functional; conditions: 504 h, time 21 day, read-out: TGI

Structure (SMILES): O=C(CCCO/N=C1/C(=C2/C(=O)Nc3ccccc32)Nc2ccccc21)NO
- Activity (A549 [1]): Active
- inhibition [2]: inactive
- inhibition [3]: Active
- Activity (A549 [4]): Active
- inhibition [5]: inactive
- Activity (MCF7 [6]): Active
- inhibition [7]: inactive
- Activity (A549 [8]): Dose-Dependent Effect
- IC50 (MCF7 [9]): 2900 nM
- inhibition [10]: Dose-Dependent Effect
- Activity (K562): Dose-Dependent Effect
- Activity (A549 [11]): Dose-Dependent Effect
- inhibition (Mus musculus): Active
- inhibition in vivo at 25 mg/kg (A549 [12]): 43.2%
